Experimental data as given in patent US20240000741A1, “ALL-TRANS RETINOIC ACID ENHANCES RADIOTHERAPY AND OVERCOMES IMMUNE SUPPRESSION FOR CANCER THERAPY” (The University of Chicago, priority 2022, published 2024).
Where a name gives a salt, the structure may show the parent alone.

Columns and labels:
[1] = test system: MC38 colon carcinoma tumors; assay: MC38 tumor growth after local ablative IR and/or RA; type: in vivo, mouse
immune cells in tumors = assay: Flow cytometric analysis of immune cells in treated MC38 tumors and draining lymph nodes; type: in vivo, mouse; details: FTY720 administration, after IR+RA treatment
Text: Single cell suspensions were obtained as previously described (40). Cells were blocked with anti-Fc receptor (2.4 G2, BioXCell, Lebanon, New Hampshire, United States of America) and stained for live/dead with Zombie UV, followed staining using antibodies against CD45, CD4, CD8, NK1.1, CD11b, CD11c, Ly6C, Ly6G, F4/80, CD44, CD62L.
The following antibodies were used for high-dimensional flow analysis: BV605-CX3CR, BV650-XCR1, PB-CD11 b, BV510-CD24, BV711-CD64, BV785-F4/80, AF532-CD45, PerCP-Cy5.5-1-A/I-E, PerCP-eFluor710-Flt3, PE-Cy7-CD11c, FITC-Ly6C, PE-iNOS, PE-Dazzle 594-CD103, APC-TNF, Alexa Fluor 700-CD206, and APC-Cy7-SIRPα. For IFN-γ and GrzB (515407) staining, cells were cultured with PMA/ionomycin and brefeldin A (423303, BioLegend, San Diego, California, United States of America) for 6 hours followed by intracellular staining using BD fix/perm intracellular staining kit (554714, BD Biosciences, Franklin Lakes, New Jersey, United States of America). For TNF-α staining, cells were stimulated by PMA/ionomycin and brefeldin A for 4 hours followed by intracellular staining. Foxp3 (17-5773-82, Thermo Fisher Scientific, Waltham, Massachusetts, United States of America) Ki67 (Clone 16-A8, BioLegend, San Diego, California, United States of America) and iNOS staining were performed following Foxp3 staining protocol (00-5523-00, Thermo Fisher Scientific, Waltham, Massachusetts, United States of America). Cells were analyzed on Fortessa flow cytometer (BD Biosciences, Franklin Lakes, New Jersey, United States of America) or on Aurora spectral cytometer (Cytek Biosciences, Fremont, California, United States of America. Data was analyzed with software sold under the tradename FLOWJO software (FlowJo LLC, Ashland, Oregon, United States of America).
Immune cells in tumors 4 days after the start of the treatment were examined. […] In CD11b+ subsets, Ly6C^+ cells, including CD11c^+Ly6C^+ cells, increased by 4-fold in tumors receiving the combination treatment. […] Next, the DC population was examined by analyzing high-dimensional flow cytometry data using traditional dendritic cell (DC) markers. Monocyte-derived dendritic cells (MoDCs) (Ly6C^+CD11 b^+CD11c^+ MHC-II^+CXCR3^+CD64^+SIRPα^+CD206^− cells), a low level of type two dendritic cells (DC2s) (Ly6C^−CD11b^+CD11c^+MHC-11^+CXCR3^+CD64^−SIRPα+CD206^−) and a very low level of type one dendritic cells (DC1s) (Ly6C^−CD11b^−CD11c^+MHC-11^+ CXCR1^+CD103^+CD64^−) were detected in IR and RA treated tumors.

[2] = test system: bone marrow-derived DCs (BMDCs); assay: iNOS induction in bone marrow-derived dendritic cells in vitro; type: cell-based, mouse; details: addition of IFN-γ to BMDCs cultured with RA
Procedure: Femurs and tibias from 8- to 10-week-old mice were harvested. BMDCs were derived as described (40). The cultured BMDC were collected on day 6 for further experiments. For Inf-MAC induction in vitro, bone marrow cells were cocultured with the presence of 200 μM RA. On day 6, indicated amount of IFN-γ was added directly to the culture. Cells were stained for iNOS and TNF-α after 24-36 hours and analyzed using flow cytometry.

## CCCCCCCCc1ccc(CCC(N)(CO)CO)cc1 [FTY720, fingolimod hydrochloride]
[1]; FTY720 20 μg per dose by gavage every day for 7 days
  efficacy of IR+RA treatment: diminished to the level of IR alone
[1]; FTY720 20 μg per dose by gavage every day for 7 days, IR alone
  response to IR: not affected
Immune cells in tumors
  iNOS production in Inf-MACs in tumors and in circulating blood: abolishes increased iNOS production

## CC(=N)NCc1cccc(CN)c1.Cl.Cl [1400 W, N-[[-(aminomethyl)phenyl]methyl]-ethanimidamide dihydrochloride]
[1]; iNOS inhibitor 1400 W administered in vivo
  antitumor efficacy of combined IR and RA treatment: significantly diminished

B1: IFN-γ: interferon-gamma added to BMDC culture (protein, UniProt P01580 23-155, looked up)
Interferon gamma: HGTVIESLESLNNYFNSSGIDVEEKSLFLDIWRNWQKDGDMKILQSQIISFYLRLFEVLKDNQAISNNISVIESHLITTFFSNSKAKKDAFMSIAKFEVNNPQVQRQAFNELIRVVHQLLPESSLRKRKRSRC
[2]
  iNOS production in BMDCs: synergistically increased iNOS production in a dose dependent manner
